Assay results taken from US20250144067A1, “PERSONALIZED STARVATION THERAPY FOR CANCER” (Faeth Therapeutics, Inc., priority 2021, published 2025).
Where a name gives a salt, the structure may show the parent alone. Read-outs that look alike come from different tables or passages of the source.

Key:
[1] = system: NCI-H292 lung cancer cells; test: FDA drug screening, complete media vs cholesterol-free media without statin (TABLE 1); type: cell-based, human
[2] = system: NCI-H292 lung cancer cells; test: FDA drug screening, complete media vs cholesterol-free media with simvastatin (TABLE 2); type: cell-based, human
[3] = Complete minus Cholesterol-free, >0 enhanced anti-cancer activity, about 0 neutral, <0 antagonist
[4] = NCI-H292 cells, cholesterol-free media without statin
[5] = NCI-H292 cells, FDA drug library screen, cholesterol-free media with simvastatin 0.04 μM
[6] = NCI-H292 cells, FDA drug library screen, complete media
[7] = complete media vs cholesterol-free media + simvastatin (0.04 μM), >0 enhanced anti-cancer activity, about 0 neutral, <0 antagonist
[8] = complete vs cholesterol-free media, greater than 0 enhanced anti-cancer activity, about 0 neutral, below 0 antagonists
[9] = NCI-H292 cells, cholesterol-free media with simvastatin 0.04 μM, FDA drug library screen (TABLE 2)
[10] = NCI-H292 cells, complete media, FDA drug library screen (TABLE 2)
[11] = complete media minus cholesterol-free media + simvastatin (0.04 μM), >0 enhanced anti-cancer activity, about 0 neutral, <0 antagonist
[12] = NCI-H292 cells, cholesterol-free media without statin, FDA drug library screen
[13] = NCI-H292 cells, complete media, FDA drug library screen
[14] = complete vs cholesterol-free media, >0 enhanced anti-cancer activity, about 0 neutral, <0 antagonist
[15] = complete media minus cholesterol-free media + simvastatin, >0 enhanced anti-cancer activity, about 0 neutral, <0 antagonist
[16] = NCI-H292 cells, drug in cholesterol-free media with simvastatin 0.04 μM
[17] = NCI-H292 cells, drug in complete media
[18] = Complete minus Cholesterol-free, […]
[19] = NCI-H292 cells, cholesterol-free media with simvastatin 0.04 μM, […]
[20] = NCI-H292 cells, complete media, […]
[21] = complete media minus cholesterol-free media + simvastatin, […]
[22] = Complete minus Cholesterol-free, greater than 0 enhanced anti-cancer activity, about 0 neutral, below 0 antagonists
[23] = NCI-H292 cells in cholesterol-free media without statin
[24] = NCI-H292 cells in complete media
[25] = NCI-H292 cells, FDA library drug in complete media
[26] = NCI-H292 cells, cholesterol-free media with simvastatin 0.04 μM, cell growth value in FDA drug screen
[27] = NCI-H292 cells, complete media, cell growth value in FDA drug screen
[28] = Complete minus Cholesterol-free, greater than 0 enhanced anti-cancer activity, about 0 neutral, below 0 antagonist
[29] = NCI-H292 cells, FDA drug library screen, cholesterol-free media without statin

Compound: CC[C@@H](C(N)=O)N1CCCC1=O [Levetiracetam]
- Difference [1, 3]: −0.22
- Cholesterol-free [1, 4]: 1.098
- Complete ([1]; NCI-H292 cells, complete media): 0.8825
- Cholesterol-free media + simvastatin (0.04 μM) [2, 5]: 1.002
- Complete Media [2, 6]: 0.917
- Difference [2, 7]: −0.09

Compound: CN(Cc1ccc(C(C)(C)C)cc1)Cc1cccc2ccccc12 [Butenafine (Hydrochloride)]
- Cholesterol-free [1, 4]: 1.694
- Complete ([1]; NCI-H292 cells, complete media): 1.364
- Difference [1, 8]: −0.33
- Cholesterol-free media + simvastatin (0.04 μM) [2, 9]: 1.078
- Complete Media [2, 10]: 1.061
- Difference [2, 11]: −0.02

Compound: c1ccc2[nH]c(-c3cscn3)nc2c1 [Thiabendazole]
- Cholesterol-free [1, 12]: 0.802
- Complete [1, 13]: 1.484
- Difference [1, 14]: 0.68
- Cholesterol-free media + simvastatin (0.04 μM) [2, 5]: 0.9537
- Complete Media [2, 6]: 1.187
- Difference [2, 15]: 0.23

Compound: CC1(C)S[C@@H]2[C@H](NC(=O)[C@H](NC(=O)N3CCN(S(C)(=O)=O)C3=O)c3ccccc3)C(=O)N2[C@H]1C(=O)[O-].[Na+] [Mezlocillin (sodium)]
- Cholesterol-free [1, 12]: 0.8225
- Complete [1, 13]: 1.264
- Difference [1, 14]: 0.44
- Cholesterol-free media + simvastatin (0.04 μM) [2, 16]: 1.179
- Complete Media [2, 17]: 0.9159
- Difference [2, 7]: −0.26

Compound: CN1C(=O)/C(=C2/C(=O)Nc3ccccc32)c2ccccc21 [Meisoindigo]
- Cholesterol-free [1, 12]: 0.8169
- Complete [1, 13]: 1.238
- Difference [1, 14]: 0.42
- Cholesterol-free media + simvastatin (0.04 μM) [2, 5]: 0.9145
- Complete Media [2, 6]: 1.461
- Difference [2, 15]: 0.55

Compound: Vitamin B12
- Difference [1, 18]: −0.19
- Complete ([1]; NCI-H292 cells, complete media): 0.9199
- Cholesterol-free media + simvastatin (0.04 μM) [2, 19]: 1.198
- Complete Media [2, 20]: 1.289
- Difference [2, 21]: 0.09

Compound: Nc1ncnc2[nH]cnc12 [Adenine]
- Difference [1, 22]: −0.97
- Cholesterol-free [1, 23]: 1.858
- Complete [1, 24]: 0.8914
- Cholesterol-free media + simvastatin (0.04 μM) [2, 5]: 1.106
- Complete Media [2, 6]: 1.256
- Difference [2, 15]: 0.15

Compound: O=C(O)c1cc(=O)c2ccccc2o1 [Chromocarb]
- Cholesterol-free [1, 4]: 1.221
- Complete ([1]; NCI-H292 cells, complete media): 0.8012
- Difference [1, 8]: −0.42
- Cholesterol-free media + simvastatin (0.04 μM) ([2]; NCI-H292 cells, FDA library drug in cholesterol-free media with simvastatin 0.04 μM): 1.932
- Complete Media [2, 25]: 1.471
- Difference [2, 7]: −0.46

Compound: CS(=O)(=O)CCNCc1ccc(-c2ccc3ncnc(Nc4ccc(OCc5cccc(F)c5)c(Cl)c4)c3c2)o1 [Lapatinib]
- Difference [1, 3]: −0.07
- Cholesterol-free [1, 12]: 0.3435
- Complete [1, 13]: 0.2753
- Cholesterol-free media + simvastatin (0.04 μM) [2, 26]: 0.4073
- Complete Media [2, 27]: 0.4535
- Difference [2, 15]: 0.05

Compound: COC1=C(OC)C(=O)C(CCCCCCCCCCO)=C(C)C1=O [Idebenone]
- Difference [1, 3]: −0.21
- Cholesterol-free [1, 4]: 1.239
- Complete ([1]; NCI-H292 cells, complete media): 1.029
- Cholesterol-free media + simvastatin (0.04 μM) [2, 26]: 1.049
- Complete Media [2, 27]: 1.125
- Difference [2, 15]: 0.08

Compound: CN(CCN1CCC(OC(=O)Nc2ccccc2-c2ccccc2)CC1)C(=O)c1ccc(CN2CCC(C(N)=O)CC2)cc1 [Revefenacin]
- Complete [1]: 0.9642
- Difference [1]: −0.65
- Cholesterol-free media + simvastatin (0.04 μM) [2]: 1.184
- Complete Media [2]: 1.038
- Difference [2]: −0.15

Compound: N#Cc1cc(-c2n[nH]c(-c3ccncc3)n2)ccn1 [Topiroxostat]
- Cholesterol-free [1, 12]: 0.764
- Complete [1, 13]: 1.603
- Difference [1, 14]: 0.84
- Cholesterol-free media + simvastatin (0.04 μM) [2, 9]: 1.544
- Complete Media [2, 10]: 1.543
- Difference [2, 11]: 0.00

Compound: O=C(CCCN1CCN(c2ccccn2)CC1)c1ccc(F)cc1 [Azaperone]
- Difference [1, 3]: −0.01
- Cholesterol-free [1, 12]: 0.9307
- Complete [1, 13]: 0.9163
- Cholesterol-free media + simvastatin (0.04 μM) [2, 9]: 1.007
- Complete Media [2, 10]: 0.9983
- Difference [2, 11]: −0.01

Compound: Cc1nc(Nc2ncc(C(=O)Nc3c(C)cccc3Cl)s2)cc(N2CCN(CCO)CC2)n1 [Dasatinib (hydrochloride)]
- Difference [1, 28]: −0.10
- Cholesterol-free [1, 29]: 0.3831
- Complete [1, 6]: 0.2841
- Cholesterol-free media + simvastatin (0.04 μM) [2, 9]: 0.2818
- Complete Media [2, 10]: 0.268
- Difference [2, 11]: −0.01

Compound: CC(C)(C)c1cc(-c2cc(-c3ccc(C(=O)O)cc3)ccc2OCCO)ccc1N1CCCC1 [Trifarotene]
- Cholesterol-free [1, 4]: 1.099
- Complete ([1]; NCI-H292 cells, complete media): 0.7867
- Difference [1, 8]: −0.31
- Cholesterol-free media + simvastatin (0.04 μM) [2, 5]: 0.9343
- Complete Media [2, 6]: 0.8355
- Difference [2, 7]: −0.10

Compound: CC(C)NNC(=O)c1ccncc1 [Iproniazid]
- Difference [1, 22]: −0.56
- Cholesterol-free [1, 23]: 1.339
- Complete [1, 24]: 0.7813
- Cholesterol-free media + simvastatin (0.04 μM) [2, 5]: 1.211
- Complete Media [2, 6]: 1.75
- Difference [2, 15]: 0.54

Compound: Rivastigmine (tartrate)
- Cholesterol-free [1, 4]: 1.242
- Complete ([1]; NCI-H292 cells, complete media): 0.9137
- Difference ([1]; complete vs cholesterol-free media, […]): −0.33
- Cholesterol-free media + simvastatin (0.04 μM) [2, 9]: 1.478
- Complete Media [2, 10]: 1.417
- Difference ([2]; complete media minus cholesterol-free media + simvastatin (0.04 μM), […]): −0.06

Compound: CN1CCN(CC/C=C2/c3ccccc3Sc3ccc(S(=O)(=O)N(C)C)cc32)CC1 [(Z)-Thiothixene]
- Difference [1, 3]: −0.29
- Cholesterol-free [1, 4]: 1.344
- Complete ([1]; NCI-H292 cells, complete media): 1.05
- Cholesterol-free media + simvastatin (0.04 μM) [2, 26]: 0.9883
- Complete Media [2, 27]: 1.062
- Difference [2, 15]: 0.07

Compound: Iproniazid (phosphate)
- Difference [1, 3]: −0.26
- Complete ([1]; NCI-H292 cells, complete media): 0.8468
- Difference [2, 7]: −0.09

Compound: N#Cc1ccnc(N2C(=O)CC[C@H]2C(=O)N(c2cncc(F)c2)[C@H](C(=O)NC2CC(F)(F)C2)c2ccccc2Cl)c1 [Ivosidenib]
- Difference [1, 28]: −0.17
- Cholesterol-free [1, 29]: 0.9061
- Complete [1, 6]: 0.7326
- Cholesterol-free media + simvastatin (0.04 μM) [2, 26]: 0.8742
- Complete Media [2, 27]: 0.9265
- Difference [2, 15]: 0.05

Compound: Cl.Cl.OCCN1CCN(CCC=C2c3ccccc3Sc3ccc(C(F)(F)F)cc32)CC1 (mixture of isomers) [Flupentixol dihydrochloride]
- Cholesterol-free [1, 4]: 1.101
- Complete ([1]; NCI-H292 cells, complete media): 0.7804
- Difference [1, 8]: −0.32
- Cholesterol-free media + simvastatin (0.04 μM) [2, 5]: 0.5255
- Complete Media [2, 6]: 1.084
- Difference [2, 15]: 0.56

Compound: CC/C(=C(/CC)c1ccc(O)cc1)c1ccc(O)cc1 [Diethylstilbestrol]
- Cholesterol-free [1, 12]: 0.5644
- Complete [1, 13]: 0.9798
- Difference [1, 14]: 0.42
- Cholesterol-free media + simvastatin (0.04 μM) [2, 26]: 0.993
- Complete Media [2, 27]: 1.095
- Difference [2, 15]: 0.10

Compound: O=C(O)[C@@H]1CCCN1 [L-Proline]
- Cholesterol-free [1]: 1.37
- Complete [1]: 0.9909
- Difference [1]: −0.38
- Cholesterol-free media + simvastatin (0.04 μM) [2]: 1.794
- Complete Media [2]: 1.088
- Difference [2]: −0.71

Compound: Verteporfin
- Difference [1, 3]: −0.04
- Cholesterol-free [1, 12]: 0.26
- Complete [1, 13]: 0.2188
- Cholesterol-free media + simvastatin (0.04 μM) [2, 5]: 0.616
- Complete Media [2, 6]: 0.9298
- Difference [2, 15]: 0.31

Compound: C=C[C@H]1C[N@@]2CC[C@H]1C[C@@H]2[C@@H](O)c1ccnc2ccc(OC)cc12 [Quinidine]
- Complete [1, 13]: 1.951
- Difference [1, 14]: 0.93
- Complete Media [2, 25]: 0.8492
- Difference [2, 7]: −0.29

Compound: NC(=O)CC[C@H](N)C(=O)O [L-Glutamine]
- Cholesterol-free [1, 12]: 1.026
- Complete [1, 13]: 1.522
- Difference [1, 14]: 0.50
- Cholesterol-free media + simvastatin (0.04 μM) [2, 9]: 0.8178
- Complete Media [2, 10]: 0.7954
- Difference [2, 11]: −0.02

Compound: C[C@H]1CNCCCN1S(=O)(=O)c1cccc2cncc(F)c12 [Ripasudil]
- Cholesterol-free [1, 12]: 0.6571
- Complete [1, 13]: 0.9065
- Difference [1, 14]: 0.25
- Cholesterol-free media + simvastatin (0.04 μM) [2, 16]: 1.388
- Complete Media [2, 17]: 1.177
- Difference [2, 7]: −0.21

Compound: NC(=O)c1cccnc1 [Nicotinamide]
- Difference [1, 28]: −0.17
- Cholesterol-free [1, 29]: 0.8882
- Complete [1, 6]: 0.716
- Cholesterol-free media + simvastatin (0.04 μM) [2, 5]: 0.9853
- Complete Media [2, 6]: 0.9029
- Difference [2, 7]: −0.08

Compound: O=C(O)Cc1ccccc1Nc1c(Cl)cccc1Cl [Diclofenac (potassium)]
- Difference [1, 3]: −0.03
- Cholesterol-free [1, 12]: 1.133
- Complete [1, 13]: 1.107
- Cholesterol-free media + simvastatin (0.04 μM) [2, 9]: 1.093
- Complete Media [2, 10]: 1.041
- Difference [2, 11]: −0.05

Compound: CCCC(=O)O[C@]1(C(=O)CCl)[C@H](C)C[C@@H]2[C@@H]3CCC4=CC(=O)C=C[C@]4(C)[C@]3(F)C(=O)C[C@@]21C [Clobetasone butyrate]
- Difference [1, 18]: −0.18
- Cholesterol-free [1, 29]: 0.6832
- Complete [1, 6]: 0.5004
- Cholesterol-free media + simvastatin (0.04 μM) [2, 19]: 0.5437
- Complete Media [2, 20]: 0.5699
- Difference [2, 21]: 0.03
